Assay results published in PMC2806602 (The Journal of neuroscience : the official journal of the …, 2009).
Numbering of substitutions follows the chain as printed. Like-named read-outs stand apart in the source and are kept apart here.

Experiments:
Format in all cases: cell-based
[1] = biological target: T1, GluRδ2^Lc (Rattus norvegicus, UniProt Q63226, A654T)
T1 sequence (Q63226 24-1007 A654T): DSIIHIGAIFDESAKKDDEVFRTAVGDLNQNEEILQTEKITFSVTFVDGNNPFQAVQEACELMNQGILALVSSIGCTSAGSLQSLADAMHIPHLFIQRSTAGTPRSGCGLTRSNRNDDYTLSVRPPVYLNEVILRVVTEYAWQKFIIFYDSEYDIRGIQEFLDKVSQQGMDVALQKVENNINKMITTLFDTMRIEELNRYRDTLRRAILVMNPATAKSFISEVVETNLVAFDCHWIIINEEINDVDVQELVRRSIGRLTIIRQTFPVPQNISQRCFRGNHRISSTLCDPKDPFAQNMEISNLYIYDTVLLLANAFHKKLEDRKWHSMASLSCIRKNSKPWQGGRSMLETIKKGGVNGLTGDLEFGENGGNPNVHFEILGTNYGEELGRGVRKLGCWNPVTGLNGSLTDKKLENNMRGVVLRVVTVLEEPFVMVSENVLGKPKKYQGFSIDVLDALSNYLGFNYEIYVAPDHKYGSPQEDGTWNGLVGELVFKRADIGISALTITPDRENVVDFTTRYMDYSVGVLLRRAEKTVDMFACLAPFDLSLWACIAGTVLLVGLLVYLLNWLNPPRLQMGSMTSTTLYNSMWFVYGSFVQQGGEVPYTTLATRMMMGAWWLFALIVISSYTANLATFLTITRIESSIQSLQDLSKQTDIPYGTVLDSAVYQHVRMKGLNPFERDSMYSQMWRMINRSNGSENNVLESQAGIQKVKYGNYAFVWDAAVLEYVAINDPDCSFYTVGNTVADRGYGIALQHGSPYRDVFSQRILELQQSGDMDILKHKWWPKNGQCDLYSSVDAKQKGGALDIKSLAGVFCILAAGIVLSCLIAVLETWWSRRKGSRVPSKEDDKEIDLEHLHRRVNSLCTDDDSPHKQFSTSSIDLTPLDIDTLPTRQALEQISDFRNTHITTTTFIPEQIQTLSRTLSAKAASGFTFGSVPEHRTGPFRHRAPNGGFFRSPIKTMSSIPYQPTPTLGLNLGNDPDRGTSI

[2] = biological target: T2, GluRδ2^Lc D535A (Rattus norvegicus, UniProt Q63226, A654T/D535A); experiment: Two-electrode voltage-clamp recordings in Xenopus oocytes, GluRδ2^Lc D535A
T2 sequence (Q63226 24-1007 D535A/A654T): T1 sequence (Q63226 24-1007 A654T) with D512A

[3] = biological target: T3, GluRδ2^Lc D535C+D782C (Rattus norvegicus, UniProt Q63226, A654T/D535C/D782C); experiment: Two-electrode voltage-clamp recordings in Xenopus oocytes, GluRδ2^Lc D535C+D782C
T3 sequence (Q63226 24-1007 D535C/A654T/D782C): T1 sequence (Q63226 24-1007 A654T) with D512C, D759C

## [Ca+2] [Ca^2+, calcium]
[1]; 0.5 mM Ba^2+ exchanged with 0.5 mM of the divalent cation
  spontaneously active current relative to baseline with Ba^2+: 3.91 ± 0.22
[1]; 3 mM Ca^2+, baseline spontaneously active current, ± SEM
  Ca^2+ potentiation (relative to baseline): 3.8 ± 0.23 fold
[1]; Ca^2+ concentration-response, fitted maximum
  maximal fold potentiation relative to baseline spontaneously active currents: 4.1 ± 0.2 fold
[1]; Hill coefficient
  nH of reduction of D-serine potency by extracellular Ca^2+: 1.3
[1]; Hill coefficient, in the absence of D-serine
  nH of Ca^2+ potentiation of GluRδ2^Lc currents: 1.7
[1]; Hill coefficient, in the presence of 1 mM D-serine
  nH of Ca^2+ potentiation of GluRδ2^Lc currents: 2.3
[1]; read-out: EC50 of Ca^2+ to potentiate GluRδ2^Lc currents, in the presence of 1 mM D-serine
  EC50: 676 ± 13 µM
[1]; read-out: EC50 of Ca^2+ to potentiate spontaneously active GluRδ2^Lc currents, in the absence of D-serine
  EC50: 205 ± 7 µM
[2]; 3 mM Ca^2+, ± SEM
  Ca^2+ potentiation (relative to baseline): 1.0 ± 0.01 fold
[3]; 3 mM Ca^2+, ± SEM
  Ca^2+ potentiation (relative to baseline): 0.9 ± 0.01 fold

## N[C@H](CO)C(=O)O [D-serine]
[1]; Hill slope, 0 mM Ca^2+
  D-serine + 0 mM Ca^2+ nH: 1.0
[1]; Hill slope, 3 mM Ca^2+
  D-serine + 3 mM Ca^2+ nH: 2.1
[2]; Hill slope, 0 mM Ca^2+
  D-serine + 0 mM Ca^2+ nH: 2.3
[2]; Hill slope, 3 mM Ca^2+
  D-serine + 3 mM Ca^2+ nH: 2.2
[3]; Hill slope, 0 mM Ca^2+
  D-serine + 0 mM Ca^2+ nH: 0.9
[3]; Hill slope, 3 mM Ca^2+
  D-serine + 3 mM Ca^2+ nH: 1.0
